According to patent publication US6867320B2, “Substituted phenylalkanoic acid derivatives and use thereof” (Asahi Kasei Pharma Corporation, priority 2002, dated 2005):

Tests used:
[1] = test system: PGD2 production from IgE-stimulated RBL-2H3 cells; assay: Suppressing action on PGD2 production from IgE-stimulated RBL-2H3 cells; type: cell-based; conditions: Rattus norvegicus, 10 min, IgE/DNP-BSA stimulated RBL-2H3 cells, read-out: PGD2 production suppression ratio
Outline: (§1)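 Rat RBL-2H3 mastocytoma cells, sensitized 30 min with anti-DNP-BSA IgE, then given test compound in 0.5% FBS medium and stimulated with DNP-BSA (100 ng/ml final). Supernatant PGD2 and LTB4 were measured by EIA after 10 min. Suppression ratio is calculated against unstimulated and stimulant-only controls.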

[2] = test system: LTB4 production from IgE-stimulated RBL-2H3 cells; assay: Suppressing action on LTB4 production from IgE-stimulated RBL-2H3 cells; type: cell-based; conditions: Rattus norvegicus, 10 min, IgE/DNP-BSA stimulated RBL-2H3 cells, read-out: LTB4 production suppression ratio
Outline: as §1

[3] = test system: IgE-stimulated footpad edema; assay: Mouse IgE-stimulated footpad edema reaction; type: in vivo; conditions: C57BL/6 male mice, oral 0.1 to 500 mg/kg, compared with positive control group
Outline: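 Male C57BL/6 mice (9–11 weeks, n=5) sensitised one day earlier by footpad injection of anti-DNP-BSA IgE serum; compound given orally in 0.5% methylcellulose at 0.1 to 500 mg/kg, then DNP-BSA i.v. 2 h later. Footpad swelling measured at 10–30 min, expressed as AUC and % suppression versus vehicle control.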

[4] = test system: zymosan-stimulated footpad edema; assay: Mouse zymosan-stimulated footpad edema reaction; type: in vivo; conditions: ICR female mice, oral 0.1 to 500 mg/kg, compared with positive control group
Outline: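 Female ICR mice (6–7 weeks, n=8) dosed orally at 0.1 to 500 mg/kg in 0.5% methylcellulose; 1 h later zymosan (1 mg/ml, 0.02 ml) injected s.c. into right hind footpad. Edema volume at 1 and 2 h gave AUC to 2 h; suppression (%) calculated against positive control AUC.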

[5] = test system: PGE2 production from IL-1β-stimulated MG-63 cells; assay: Suppressing action on PGE2 production from IL-1β-stimulated MG-63 cells; type: cell-based; conditions: Homo sapiens, IL-1β 1 ng/ml, 18 hours, read-out: PGE2 production suppression ratio
Outline: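 Human osteosarcoma MG-63 cells (2×10^4/well) switched to 0.5% FBS medium, treated with compound, then stimulated with IL-1β at 1 ng/ml final for 18 h. Supernatant PGE2 measured by EIA; suppression ratio calculated against stimulated and unstimulated wells.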

## O=C(O)CCc1ccc(OCC2CCCCC2)c(-c2cnc3ccccc3c2)c1 [Compound 317, 3-[4-cyclohexylmethyloxy-3-(quinolin-3-yl)phenyl]propionic acid]
[1]
  inhibition at 0.4 µM: ≥ 50%
[2]
  inhibition at 0.4 µM: ≥ 50%
[3]
  suppression of footpad edema caused by IgE stimulation: suppressed the footpad edema
[4]
  suppression of footpad edema caused by zymosan: suppressed footpad edema
[5]
  inhibition at 0.4 µM: ≥ 50%
